These results are taken from PMC9070039, “Synthesis and evaluation of antimicrobial activity, cytotoxic and pro-apoptotic effects of novel spiro-4H-pyran derivatives” (RSC Advances, 2019).

In brackets after ≈: the same amount, converted by molar mass.

The subject of one assay is Bax. As to the kind of experiment: Real-time RT-PCR, Bax mRNA expression. The assay is classed as cell-based, human. Conditions: A549 cells, 40 μM, 48 h. The text has this:
(§1) Finally, we confirmed that apoptosis mediated by mitochondria induces in A549 cells. It is well known that the anti-apoptotic Bcl-2 protein is localized on the outer mitochondrial membranes and antagonizes the action of pro-apoptotic Bax. The balance between these two proteins prevents translocation of cytochrome c from the mitochondria to cytoplasm and determines the apoptosis resistance. Down-regulation of Bcl-2 and/or up-regulation of Bax disturb this balance and leads to apoptosis (Fig. 3A).
(§2) For quantitative real-time RT-PCR analysis, after 48 h of treatment with 40 μM of related drug (5a), A549 cells was lysed and the total RNA was extracted using 500 μL of Trizol® reagent according to the protocol provided by the manufacturer (Invitrogen Life Technologies, Carlsbad, CA, USA) followed by reverse transcription into cDNA according to manufactures protocol (ReveretAid M-Mulv reverse transcriptase kit, Thermo Fisher Scientific, MA, USA). Real-time RT-PCR was then performed to amplify cDNA using SYBR green dye universal master mix (Bioron GmbH, Germany), on a Light Cycler 480 (Roche) using the primers for GAPDH-F: 5′-CAA GGT CAT CCA TGA CAA CTTTG-3′, R:5′-[…]-3′; Bax-F:5′-[…]-3′, R: 5′-[…]-3′and Bcl-2-F: 5′-[…]-3′, R: 5′- […]-3′for forty cycles. Data represent averaged copy number normalized to the GAPDH housekeeping gene. Primer synthesis was done by Pishgam Biotech Co. Tehran, Iran. […]
(In general: Real-time PCR tracks product formation cycle by cycle.)

In the next assay the test system is HDF cells. As to the kind of experiment: MTT cytotoxicity assay. The format is cell-based. Particulars: 48 h, normal cells (human dermal fibroblast). The method, then:
(§3) At first, in order to compare anti-cancer properties, the synthesized compounds 5a–j were evaluated against A549 cells, MCF-7 cells, A375 cells, PC3 cells, LNCaP cells and HDF cells lines using the MTT colorimetric assay. The activity is expressed as 50% growth inhibitory concentration (IC50) values at 48 h. We used DMSO (1%) as negative control and Etoposide as positive control.
(§4) Human non-small-cell lung cancer A549 cells, human breast cancer MCF-7 cells, human malignant melanoma cells (A375), human prostate cancer cells (PC3 cells, LNCaP cells) and normal cells HDF (human dermal fibroblast) were received from Pasture Institute, Tehran, Iran. MCF-7 cells were grown in RPMI 1640 medium, A549 cells, A375 cells, PC3 cells, LNCaP cells and HDF cells were grown in DMEM medium. All media contain 10% fetal bovine serum (FBS), penicillin G, streptomycin 100 μg mL^−1 and 1% L-glutamine. The cells were cultured and incubated under humidified 5% CO2 atmosphere at 37 °C.
(§5) The effect of compounds treatment on the viability of cancer cell lines was measured by (3-(4,5-dimethylthiazol-2-yl)-2,5-diphenyl tetrazolium bromide or MTT) assay (MTT assay kit, Bio IDEA, CatNo: BI1017, Iran) based on the ability of live cells to cleave the tetrazolium ring to a molecule that absorb at […] as per the manufacturer's instructions.[33] Etoposide (was kindly provided by Dr A. Foroumadi, Tehran medical Science University, Iran) and dimethyl sulfoxide (or DMSO) was used as positive and negative controls, respectively.[34] Briefly, cells were plated in 96-well culture plates (5 × 10^3 cells per well). After 24 h incubation, the cells were treated with different concentrations of the compounds. After 48 h at 37 °C, the medium was removed and 100 μL of MTT reagent (1 mg mL^−1) was added to each well, and cells were further incubated at 37 °C for 4 h. The MTT solution was removed, 50 μL of DMSO was added to each well to dissolve formazan crystals, and the plates were gently shaken for 10 minutes, followed by reading with an ELISA plate reader (BiotekELx 800, USA). The 50% inhibition concentration (IC50) was defined as the concentration that inhibited cell proliferation by 50% when compared to DMSO treated cells (as negative control).

A further assay deals with MCF-7 cells. In words: MTT cytotoxicity assay. The format is cell-based. Particulars: Homo sapiens, MCF7, 48 h. The method, then: as §3, §4, §5
For orientation: Tetrazolium dyes change colour on reduction, which living cells bring about.

The subject of the next assay is LNCaP cells. In words: MTT cytotoxicity assay. The format is cell-based. Conditions: Homo sapiens, 48 h. On the procedure: as §3, §4, §5
Another assay has as its system A375 cells. In words: MTT cytotoxicity assay. The format is cell-based. Particulars: Homo sapiens, A-375, 48 h. The method, then: as §3, §4, §5
Assay [1] relates to A549 cells. In words: MTT cytotoxicity assay. Conditions: Homo sapiens, 48 h. The assay is classed as cell-based. The method, then: as §3, §4, §5
Another assay deals with PC3 cells. In words: MTT cytotoxicity assay. The assay is classed as cell-based. Conditions: Homo sapiens, PC-3, 48 h. The method, then: as §3, §4, §5
The subject of assay [2] is S. aureus. As to the kind of experiment: MIC determination. The format is cell-based. Particulars: Staphylococcus aureus; read-out: MICs (mM) S. aureus. The method, then: (§6) Antibacterial effects of spiro[indeno[2,1-c]pyridazine-9,4′-pyran]-3′,4-dicarbonitrile derivatives 5a–j were evaluated in vitro by using disk diffusion method against Gram-positive (S. aureus) and Gram negative (E. coli). The diameter of inhibition zone correlates to the sensitivity of a bacterium to an antibacterial agent. […] E. coli was resistant against all compounds tested (Table 2). Tetracycline and DMSO were used as positive control and negative control respectively. Next, the active compounds were analysed using MIC assay to determine the lowest concentration for inhibition. […] It seems due to the difference in structure of bacterial cell wall (i.e., the presence of outer membrane with lipid, lipopolysaccharide, and lipoprotein content in Gram negative bacteria), E. coli was resistant against the related synthetic compounds.
(§7) Antibacterial activity of the prepared synthetic compounds against the Gram-negative bacteria (E. coli; ATCC: 15922) and the Gram-positive bacteria (S. aureus; PTCC: 1112, International no. ATCC6538P) were examined by disk diffusion assay. Bacterial cultures were obtained from Persian Type Culture Collection, Tehran, Iran (PTCC). Isolated pure colonies from fresh grown bacteria were transferred from the plates into sterile normal saline solution and it was vortexed to form bacterial homogenous suspensions. The turbidity was then adjusted to 0.5 McFarland standard units, and the suspensions were poured over Mueller–Hinton agar (MHA) plates. Sterile filter paper disks were placed over these plates. The sterile disks were impregnated with the tested compounds. Positive control (tetracycline) and negative control ([…]) were used. To determine MIC, the concentrations of tested substance were prepared within the range from 30–5 mM. Incubate in incubator at 37 °C in 24 h for bacteria (Table 2).

Assay [3] deals with S. aureus. As to the kind of experiment: Disk diffusion antibacterial test. The format is cell-based, Staphylococcus aureus. Particulars: there called agar dilution method. The method, then:
as §6, §7
For orientation: A growth-free zone around the sample is the usual read-out of agar diffusion tests.

Assay [4] has as its system A549 cells. In words: DAPI staining assay. The assay is classed as cell-based, human. Particulars: 24 h treatment. On the procedure:
as §3
DAPI staining assay was used to determine chromatin changes. A549 cells were seeded in six well plates (5 × 10^4 cells per well) containing 12 mm cover-slips and subsequently treated for compound 5a (sample or treated cells) and DMSO (control or untreated cells) for 24 h. Cells then were fixed with 3.7% paraformaldehyde, permeabilized in 0.5% (w/v) Triton X-100, 1% BSA (w/v) for 5 min, washed in PBS, and stained with DAPI (Sigma-Aldrich, USA). All images were taken by an inverted fluorescent microscope (Nikon Eclipse Ti-E).

Another assay relates to E. coli. As to the kind of experiment: Disk diffusion antibacterial test. The format is cell-based, Escherichia coli. Also noted: key: —: inactive at concentration 50 mM. Particulars: disc diffusion test, concentration 50 mM. On the procedure:
as §6, §7

The next assay has as its system Bcl-2. As to the kind of experiment: Real-time RT-PCR, Bcl-2 mRNA expression. The format is cell-based, human. Conditions: A549 cells, 40 μM, 48 h.
Excerpt: as §1, §2

A word on the IC50: it is the concentration that inhibits the measured activity by half. With `Cn1c2c(c(=O)n(C)c1=O)C1(C(C#N)=C(N)O2)c2ccccc2-c2c1n[nH]c(=O)c2C#N` (stereo not drawn) [5a, 7′-Amino-1′,3′-dimethyl-2′,3,4′-trioxo-1′,2,2′,3,3′,4′-hexahydrospiro[indeno[2,1-c]pyridazine-9,5′-pyrano[2,3-d]pyrimidine]-4,6′-dicarbonitrile], the “Relative expression of Bax mRNA” value in the assay on Bax is recorded as “up-regulated expression”. In addition, the IC50 is greater than 100 µM with HDF cells; greater than 100 µM in the assay with MCF-7 cells; 32.15 ± 0.046 µM in the assay on LNCaP cells; 70.72 ± 0.064 µM in the assay with A375 cells; 40 ± 0.007 µM in the assay on A549 cells [1]; greater than 100 µM in the assay with PC3 cells. The MIC with S. aureus [2] is 5 mM (≈ 2140 µg/mL). The “Sensitivity of S. aureus to compound” value in the assay with S. aureus [3] is “sensitive”. The “Chromatin changes / cell death by DAPI staining” value with A549 cells [4] is “induced cell death in A549 cells”. Also, in the assay on E. coli, the “Inhibition zone (mm) E. coli” value is “—”. Further, the “Relative expression of Bcl-2 mRNA” value with Bcl-2 is listed as “down-regulation expression”.
